Reference: patent US20240217982A1, “KRAS INHIBITORS” (Bristol-Myers Squibb Company, priority 2021, published 2024)

Tests used:
KRAS G12D [1] = molecular target: T1, KRAS G12D (Homo sapiens (Human), UniProt P01116, G12D); assay: KRAS G12D Nucleotide Exchange Assay (HTRF); type: biochemical; conditions: recombinant GDP-loaded KRAS G12D (20 nM), BIODIPY-labeled GDP (400 nM), recombinant SOS (10 nM), HTRF signal
Description: Recombinant GDP-loaded KRAS G12D (20 nM) was treated with compound at room temperature for 20 minutes in assay buffer (10 mM Hepes pH 7.4, 150 mM NaCl, 5 mM MgCl2, 0.0025% Igepal-CA630, 0.05% BSA, 1 mM DTT, 0.5 nM SA-Tb). BIODIPY-labeled GDP (400 nM) and recombinant SOS (10 nM) were added, and the reaction was incubated for 30 minutes.

KRAS G12D [2] = molecular target: T1, KRAS G12D; assay: KRAS G12D RAF Disruption Assay (HTRF); type: biochemical; conditions: recombinant GMPPNP-loaded KRAS G12D (5 nM), GST-RAF1 RBD (9 nM), HTRF signal
Description: Recombinant GMPPNP-loaded KRAS G12D (5 nM) was treated with compound at room temperature for 20 minutes in assay buffer (50 mM Tris pH 7.5, 100 mM NaCl, 1 mM MgCl2, 1 mM DTT, 100 ug/mL BSA).

T1 sequence (P01116-2 other isoform, or with tags, fused parts or gaps G12D): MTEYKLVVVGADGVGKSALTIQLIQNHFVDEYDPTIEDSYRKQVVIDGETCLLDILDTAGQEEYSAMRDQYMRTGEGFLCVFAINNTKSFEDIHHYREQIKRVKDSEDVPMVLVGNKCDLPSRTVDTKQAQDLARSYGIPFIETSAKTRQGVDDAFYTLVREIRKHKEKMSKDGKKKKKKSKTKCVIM

Compound: Cc1cc(N)nc(-c2ccc3c(N4CC[C@H]5CC[C@@H](C4)N5)nc(OC[C@]45CCCN4C[C@H](F)C5)nc3c2F)c1C(F)(F)F [Example 12-2, 6-(2-{[(2R,7aR)-2-fluoro-hexahydro-1H-pyrrolizin-7a-yl]methoxy}-4-[(1S,6R)-3,9-diazabicyclo[4.2.1]nonan-3-yl]-8-fluoroquinazolin-7-yl)-4-methyl-5-(trifluoromethyl)pyridin-2-amine]
- KRASG12D Nucleotide Exchange Assay (IC50, µM) (KRAS G12D [1]): 0.33 µM
- KRASG12D RAF Disruption Assay (IC50, µM) (KRAS G12D [2]): 80.0 µM

Compound: Cc1cc(N)nc(-c2c(Cl)cc3c(N4CC[C@H]5CC[C@@H](C4)N5)nc(OC[C@]45CCCN4C[C@H](F)C5)nc3c2F)c1C(F)(F)F [Example 4-3, 6-(2-{[(2R,7aR)-2-fluoro-hexahydro-1H-pyrrolizin-7a-yl]methoxy}-6-chloro-4-[(1S,6R)-3,9-diazabicyclo[4.2.1]nonan-3-yl]-8-fluoroquinazolin-7-yl)-4-methyl-5-(trifluoromethyl)pyridin-2-amine]
- KRASG12D Nucleotide Exchange Assay (IC50, µM) (KRAS G12D [1]): 0.02 µM
- KRASG12D RAF Disruption Assay (IC50, µM) (KRAS G12D [2]): 0.52 µM

Compound: Oc1cc(-c2c(Cl)cc3c(N4CC[C@H]5CC[C@@H](C4)N5)nc(OC[C@]45CCCN4C[C@@H](F)C5)nc3c2F)c2ccccc2c1 (single isomer, unassigned) [Example 8-9]
- KRASG12D Nucleotide Exchange Assay (IC50, µM) (KRAS G12D [1]): 0.005 µM
- KRASG12D RAF Disruption Assay (IC50, µM) (KRAS G12D [2]): 0.7 µM

Compound: Oc1cc(-c2ccc3c(N4CC[C@H]5CC[C@@H](C4)N5)nc(OC[C@@]45CCCN4C[C@H](F)C5)nc3c2F)c2c(F)cccc2c1 [Example 11-2, 4-(2-{[(2R,7aS)-2-fluoro-hexahydro-1H-pyrrolizin-7a-yl]methoxy}-4-[(1S,6R)-3,9-diazabicyclo[4.2.1]nonan-3-yl]-8-fluoroquinazolin-7-yl)-5-fluoronaphthalen-2-ol]
- KRASG12D Nucleotide Exchange Assay (IC50, µM) (KRAS G12D [1]): 0.01 µM
- KRASG12D RAF Disruption Assay (IC50, µM) (KRAS G12D [2]): 1.0 µM

Compound: Cc1cc(N)nc(-c2c(Cl)cc3c(N4CC5CCC(C4)NC5)nc(OC[C@@H]4CCCN4C)nc3c2F)c1C(F)(F)F (stereo partly drawn) [Example 2-2, 6-(6-chloro-4-{3,6-diazabicyclo[3.2.2]nonan-3-yl}-8-fluoro-2-{[(2S)-1-methylpyrrolidin-2-yl]methoxy}quinazolin-7-yl)-4-methyl-5-(trifluoromethyl)pyridin-2-amine]
- KRASG12D Nucleotide Exchange Assay (IC50, µM) (KRAS G12D [1]): 0.14 µM
- KRASG12D RAF Disruption Assay (IC50, µM) (KRAS G12D [2]): 10.88 µM

Compound: Cc1cc(N)nc(-c2c(Cl)cc3c(N4CC[C@H]5CC[C@@H](C4)N5)nc(OCC4(CN5CCCC(F)C5)CC4)nc3c2F)c1C(F)(F)F (stereo partly drawn) [Example 10-9, 6-{6-chloro-4-[(1S,6R)-3,9-diazabicyclo[4.2.1]nonan-3-yl]-8-fluoro-2-({1-[(3-fluoropiperidin-1-yl)methyl]cyclopropyl}methoxy)quinazolin-7-yl}-4-methyl-5-(trifluoromethyl)pyridin-2-amine]
- KRASG12D Nucleotide Exchange Assay (IC50, µM) (KRAS G12D [1]): 0.41 µM
- KRASG12D RAF Disruption Assay (IC50, µM) (KRAS G12D [2]): 51.0 µM

Compound: CCc1cccc2cc(O)cc(-c3c(Cl)cc4c(N5CC[C@H]6CC[C@@H](C5)N6)nc(OC[C@@]56CCCN5C[C@H](F)C6)nc4c3F)c12 (single isomer, unassigned) [Example 8-2]
- KRASG12D Nucleotide Exchange Assay (IC50, µM) (KRAS G12D [1]): 1.3 µM
- KRASG12D RAF Disruption Assay (IC50, µM) (KRAS G12D [2]): 19.6 µM
